Columns and labels:
[1] = tested on: DM331 xenografts; experiment: Melanoma flank xenograft in nude mice; assay type: in vivo; settings: vs. vehicle; PLX4720 in rodent diet 417 mg/kg
Protocol: (§1) All animal experiments were performed after approval of animal protocols by the Animal Care and Use Committee (ACUC) of the University of Virginia. Animals were housed and handled in accordance with the guidelines of the ACUC of the University of Virginia. The effect of pevonedistat on melanoma growth was tested in flank xenograft models. Foxn1^nu (20-25 g body weight, 4-5 weeks old females) athymic nude immune-deficient mice (Harlan Laboratories, now Envigo, Indianapolis, Ind., United States of America) were used in this study. Pevonedistat was dissolved in sterile 10% DMSO containing PBS (stock 1 mM), filtered, and stored in −20° C. until use. DM93, VMM39, SLM2, DM331, or SK-MEL-24 (2×10^6) melanoma cells were implanted in both flanks of immune-deficient mice (n=12 mice per group) and tumor growth was monitored until they grow to an average volume of 150-200 mm^3, and mice were randomized into groups for treatment. Animals were administered 0.2 mL pevonedistat solution (30 or 60 mg/kg body weight as indicated) intraperitoneally on a schedule of two cycles of five-day treatment followed by five treatment-free days, for 3 weeks, or more as indicated. Control animals were treated with an equal volume of sterile vehicle (10% DMSO in PBS). Where indicated, mice received control rodent diet, or rodent diet with 417 mg/kg PLX4720 (Research Diets, Inc. New Brunswick, N.J., United States of America). Tumors were measured with an electronic caliper every other day for 3 weeks post-drug injection. Animal weight was recorded once a week to detect any weight loss due to the toxicity of drug treatment or tumor burden. At the end of the treatment, animals were euthanized and tumors harvested for further processing. The results shown are mean tumor volumes±s.e.m; *p<0.05, **p<0.01, ***p<0.001.

[2] = tested on: DM93 melanoma xenografts; experiment: Melanoma flank xenograft in nude mice; assay type: in vivo
Protocol: as §1

[3] = tested on: SLM2 xenografts; experiment: Melanoma flank xenograft in nude mice; assay type: in vivo; settings: 60 mg/kg; p=2.3×10^−3
Protocol: as §1

[4] = tested on: VMM39 xenografts; experiment: Melanoma flank xenograft in nude mice; assay type: in vivo; settings: 60 mg/kg; p=1.8×10^−5
Protocol: as §1

[5] = tested on: Trl46 HNSCC cells; settings: Trl46, 1 μM pevonedistat; cited from earlier work

## NS(=O)(=O)OCC1CC(n2ccc3c(NC4CCc5ccccc54)ncnc32)CC1O [pevonedistat, ((1S,2S,4R)-4-(4-((1S)-2,3-Dihydro-H-inden-1-ylamino)-7H-pyrrolo(2,3-d)pyrimidin-7-yl)-2-hydroxycyclopentyl)methyl sulphamate]
[1]
  growth of DM331 xenografts: inhibited
[2]; 30 mg/kg, p=0.009
  growth of sg-control DM93 xenografts: significantly inhibited the growth
[2]; 30 mg/kg, p=0.092
  growth of sg-p21-1 DM93 xenografts: failed to inhibit the growth
[2]; 30 mg/kg, p=0.66
  growth of sg-SET8-1 DM93 xenografts: failed to inhibit the growth
[2]; 30 or 60 mg/kg
  tumor regression: did not result in tumor regression
[2]; either drug concentration, up to 10 days following cessation
  tumor regrowth after cessation of treatment: not detectable
[2]; nude mice, 30 or 60 mg/kg, 5 days on/5 days off, two cycles
  tolerability: well tolerated
[3]
  growth of SLM2 xenografts: significantly inhibited the growth
[4]
  growth of VMM39 xenografts: significantly inhibited the growth
[5]
  apoptosis (% of cells): 65%
